Data from patent US8945853B2, “Detection of intracellular binding events by measuring protein abundance” (DiscoveRx Corporation, priority 2012, dated 2015).
pEC50: −log10 of the molar value.

How the values were obtained:
[1] = target: BCL-2 / PL-Bax (Homo sapiens, UniProt P10415); experiment: BCL-2 co-expressed with PL-Bax in U2OS cells, disruption by small molecules (FIG. 7A); format: cell-based; settings: for HillSlope / Bottom (best-fit) / Top (best-fit): PL-Bax; for Bottom (best-fit) / Top (best-fit) / effect on BCL-2 stabilization of Bax: U2OS, overnight; for Bottom (best-fit) / Top (best-fit): luminescence
Procedure: (§1) Interaction of BCL-2 with a peptide test compound (Bim, Bak, and Bax) was studied.
(§2) The native BCL-2 was co-expressed with each of the ProLabel fusions in U2OS cells. Small molecules that are reported to disrupt BCL-2 interactions were then applied to the cells and incubated overnight.
(§3) Cells were transduced with the indicated target PL-fusion and the untagged protein Bcl-2. The cells were treated with the indicated compounds overnight and the remaining target-PL fusion was detected by lysing the cells in the presence of EA and substrate. Luminescence was measured 30 minutes later.

[2] = target: BCL-2 / PL-Bim (Homo sapiens, UniProt P10415); experiment: BCL-2 co-expressed with PL-Bim in U2OS cells, disruption by small molecules (FIG. 7B); format: cell-based; settings: for HillSlope / Bottom (best-fit) / Top (best-fit): PL-Bim; for Bottom (best-fit) / Top (best-fit) / effect on BCL-2/Bim stabilization: U2OS, overnight; for Bottom (best-fit) / Top (best-fit): luminescence
Procedure: as §1, §2, §3

[3] = target: BCL-2 / PL-Bak (Homo sapiens, UniProt P10415); experiment: BCL-2 co-expressed with PL-Bak in U2OS cells, disruption by small molecules (FIG. 7C); format: cell-based
Procedure: as §1, §2, §3

[4] = target: CYP 17A-PL fusion (Homo sapiens, UniProt P05093); experiment: CYP17A-PL fusion stabilization in HEK cells (FIG. 11); format: cell-based
Procedure: (§4) HEK cells were transduced with fusion protein expression construct. The cells were then treated with different compounds for 3-6 hrs at 37° C. the fusion proteins were then quantified to analyze the effect of different compounds on the stabilization of fusion proteins.

[5] = system: BRD4 (1)-PL fusion; experiment: Bromodomain-PL fusion stability in HEK cells; format: cell-based; settings: 6 hrs at 37° C.
Procedure: To study the effect of compound binding, fusion proteins were prepared using fragments of BRD4 (1) (Accession No. NM_058243), BRD2 (1) (Accession No. NM_005104) and BRDT (1) (Accession No. NM_001242806) (SEQ ID NO. 13, 14 and 15 respectively) and prolabel (PL). The expression construct containing the fusion proteins were used to transducer the HEK cells. Cells were plated in a 384 well-plate and incubated overnight at 37° C./5% CO2 to allow the cells to attach and gro.

[6] = target: G9A(918-1198)-PL (Homo sapiens, UniProt Q96KQ7); experiment: Half-life of G9A catalytic domain-PL fusion in A549 cells after cycloheximide (FIG. 10); format: cell-based, humans
Procedure: Methyltransferases are a group of transferases enzymes involved in DNA methylation. G9a methyltransferase methylates lysine 9 of histone H3 and is present in humans.
The enzyme donor PL fused to the catalytic domain of G9A was expressed in A549 cells, which were plated I a 384-well plate and incubated overnight at 37° C./5% CO2 to allow the cells to attach and grow. […] Both the batches were then treated with cycloheximide to prevent further protein production and the half-life of the fusion protein in both the batches were calculated as shown in FIG. 10. […] UNC0638 is commercially available and is an inhibitor of G9a/GLP methyltransferases. See, e.g. http (colon slash slash) apps.thesgc.org/chemical_probes/UNC0638/#overview, SGC product literature.

[7] = target: T1, CYP 19A amino acids 1-503-PL fusion (Homo sapiens, UniProt P11511); experiment: CYP19A-PL fusion stabilization in HEK cells; format: cell-based; settings: data not shown
T1 construct: expressed in transfected cells; host or cells: HEK
T1 sequence (P11511 1-503): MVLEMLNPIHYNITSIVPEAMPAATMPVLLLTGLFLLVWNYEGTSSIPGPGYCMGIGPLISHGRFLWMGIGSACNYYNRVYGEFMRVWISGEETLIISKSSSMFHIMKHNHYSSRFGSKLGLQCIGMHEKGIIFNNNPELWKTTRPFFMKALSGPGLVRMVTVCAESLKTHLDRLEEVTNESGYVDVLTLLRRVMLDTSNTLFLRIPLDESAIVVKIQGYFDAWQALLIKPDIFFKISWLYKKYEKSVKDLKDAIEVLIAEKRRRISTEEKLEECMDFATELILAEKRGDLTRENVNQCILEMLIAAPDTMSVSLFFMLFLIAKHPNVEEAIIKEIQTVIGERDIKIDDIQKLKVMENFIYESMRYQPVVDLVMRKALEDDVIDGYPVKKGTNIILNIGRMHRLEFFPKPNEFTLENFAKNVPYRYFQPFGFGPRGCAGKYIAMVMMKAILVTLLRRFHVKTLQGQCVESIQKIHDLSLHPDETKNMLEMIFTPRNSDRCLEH
Procedure: as §4
Arimidex® anastrazole is available from AstraZeneca and is known to bind to aromatase. YM511 (chemical Name: 4-[[(4-Bromophenyl)methyl]-4H-1,2,4-triazol-4-ylamino]benzonitrile) is also an aromatase inhibitor. CYP19 is also known as aromatase.

[8] = target: T2, BLK (241-494)-PL fusion (Homo sapiens, UniProt P51451); experiment: Specificity of binding compounds, BLK-PL fusion in U2OS cells (FIG. 9B); format: cell-based; set-up: BLK peptide containing amino acids from 241-494 were fused with the PL; expressed in transfected cells
[9] = target: T2, BLK (241-494)-PL fusion; experiment: BLK-PL fusions of varying sequence length treated with dasatinib, EFC chemiluminescence; format: cell-based; set-up: BLK peptide containing amino acids from 241-494 were fused with the PL; expressed in transfected cells; HEK cells are also named; settings: 241-494 fusion compared with the other BLK sequence lengths; 3 hours
Procedure: A number of fusions were constructed that included varying amounts of the protein sequence centered around the kinase active site as defined by homology to other kinases. E.g. fusion containing protein BLK amino acid numbers 241-494, 246-494, 251-494, 256-494, 261-494 and 266-494 were made.
The expression construct containing the fusion protein was used to transduce the HEK cells. The cells were then incubated in the presence of dasatinib for 3 hours.
BLK-PL fusions were then quantified by adding lysis buffer, EA and chemiluminescent substrate. […] Dasatinib, N-(2-chloro-6-methylphenyl)-2-[[6-[4-(2-hydroxyethyl)-1-piperazinyl]-2-methyl-4-pyrimidinyl]amino]-5-thiazole carboxamide monohydrate, is an oral multi-BCR/ABL and Src family tyrosine kinase inhibitor approved for use in patients with chronic myelogenous leukemia (CML).
Results showing the binding of dasatinib to BLK containing amino acid sequence 241-494 are depicted in FIG. 3. The expression plasmids (e.g. 241-494) indicated in the legend are named to show the amino acid locations of the start and stop of the BLK sequence used. The plasmids were used to transduce parental U2OS cells. The cells were then treated with dasatanib for 3 hrs and the BLK-PL fusions were quantified by adding lysis buffer, EA and chemiluminescent substrate.

[10] = PL-Bak, U2OS, overnight, luminescence

T2 sequence (P51451 241-494): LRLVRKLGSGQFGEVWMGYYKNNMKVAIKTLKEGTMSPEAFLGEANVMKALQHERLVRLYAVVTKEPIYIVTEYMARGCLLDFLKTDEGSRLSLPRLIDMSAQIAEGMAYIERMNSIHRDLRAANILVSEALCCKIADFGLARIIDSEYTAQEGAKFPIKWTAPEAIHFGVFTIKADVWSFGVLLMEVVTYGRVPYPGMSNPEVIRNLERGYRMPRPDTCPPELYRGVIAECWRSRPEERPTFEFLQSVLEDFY
CYP 17A-PL fusion, sequence (P05093 with tags, fused parts or gaps): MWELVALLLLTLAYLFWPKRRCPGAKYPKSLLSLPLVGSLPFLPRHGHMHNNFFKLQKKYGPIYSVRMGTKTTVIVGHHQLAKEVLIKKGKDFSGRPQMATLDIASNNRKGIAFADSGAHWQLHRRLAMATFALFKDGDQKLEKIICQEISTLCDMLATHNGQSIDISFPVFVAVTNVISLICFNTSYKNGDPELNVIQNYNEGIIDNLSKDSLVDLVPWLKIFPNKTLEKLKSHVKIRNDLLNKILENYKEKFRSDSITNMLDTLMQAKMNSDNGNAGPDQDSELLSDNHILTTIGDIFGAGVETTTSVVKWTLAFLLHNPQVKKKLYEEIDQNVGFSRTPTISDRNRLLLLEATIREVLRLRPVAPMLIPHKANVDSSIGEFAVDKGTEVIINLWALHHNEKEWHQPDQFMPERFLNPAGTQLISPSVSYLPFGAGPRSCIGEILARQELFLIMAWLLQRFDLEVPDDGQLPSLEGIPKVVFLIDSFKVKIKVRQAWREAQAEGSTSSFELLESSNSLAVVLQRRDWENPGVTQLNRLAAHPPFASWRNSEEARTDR
BCL-2 / PL-Bax, sequence (P10415 whole entry): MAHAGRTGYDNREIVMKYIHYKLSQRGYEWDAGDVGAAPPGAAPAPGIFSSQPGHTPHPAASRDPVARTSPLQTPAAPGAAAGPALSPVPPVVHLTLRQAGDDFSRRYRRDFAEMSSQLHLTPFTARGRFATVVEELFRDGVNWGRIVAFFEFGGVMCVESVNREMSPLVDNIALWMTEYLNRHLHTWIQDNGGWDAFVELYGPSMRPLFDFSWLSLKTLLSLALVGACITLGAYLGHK
BCL-2 / PL-Bim, sequence (P10415 whole entry): as above
BCL-2 / PL-Bak, sequence (P10415 whole entry): as above
G9A(918-1198)-PL, sequence (Q96KQ7 with tags, fused parts or gaps): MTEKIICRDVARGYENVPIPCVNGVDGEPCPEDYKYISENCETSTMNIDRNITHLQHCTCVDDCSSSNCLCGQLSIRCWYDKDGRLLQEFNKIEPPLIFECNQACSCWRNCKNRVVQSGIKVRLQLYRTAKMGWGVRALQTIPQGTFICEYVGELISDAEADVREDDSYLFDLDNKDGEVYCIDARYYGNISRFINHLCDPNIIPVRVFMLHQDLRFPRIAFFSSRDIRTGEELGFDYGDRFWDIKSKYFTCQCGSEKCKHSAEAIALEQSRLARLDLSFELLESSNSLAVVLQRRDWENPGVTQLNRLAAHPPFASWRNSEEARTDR

SMILES: CC1(C)CCC(c2ccc(Cl)cc2)=C(CN2CCN(c3ccc(C(=O)NS(=O)(=O)c4ccc(N[C@H](CCN5CCOCC5)CSc5ccccc5)c(S(=O)(=O)C(F)(F)F)c4)cc3)CC2)C1 [ABT-263]
- HillSlope [1]: −1.216
- Bottom (best-fit) [1]: 5900
- Top (best-fit) [1]: 31800
- effect on BCL-2 stabilization of Bax [1]: somewhat similar effect
- HillSlope [2]: −1.635
- Bottom (best-fit) [2]: 6740
- Top (best-fit) [2]: 136900
- effect on BCL-2/Bim stabilization [2]: prevented the stabilizing effect
- HillSlope ([3]; PL-Bak): −0.4082
- Bottom (best-fit) [3, 10]: −14342
- effect on BCL-2 binding to and stabilization of Bak ([3]; overnight, U2OS): little effect

SMILES: CN(C)CC[C@H](CSc1ccccc1)Nc1ccc(S(=O)(=O)NC(=O)c2ccc(N3CCN(Cc4ccccc4-c4ccc(Cl)cc4)CC3)cc2)cc1[N+](=O)[O-] [ABT-737]
- HillSlope [1]: −1.485
- Bottom (best-fit) [1]: 6973
- Top (best-fit) [1]: 31292
- effect on BCL-2 stabilization of Bax [1]: somewhat similar effect
- HillSlope [2]: −1.898
- Bottom (best-fit) [2]: 7774
- Top (best-fit) [2]: 139290
- effect on BCL-2/Bim stabilization [2]: prevented the stabilizing effect
- HillSlope ([3]; PL-Bak): −0.5348
- Bottom (best-fit) [3, 10]: 5446
- Top (best-fit) [3, 10]: 11602
- effect on BCL-2 binding to and stabilization of Bak ([3]; overnight, U2OS): little effect

SMILES: C[C@]12CC[C@H](O)CC1=CC[C@@H]1[C@@H]2CC[C@]2(C)C(c3cccnc3)=CC[C@@H]12 [Abiraterone]
- pEC50 ([4]; stabilization, gain of signal): 9.60

SMILES: Cc1sc2c(c1C)C(c1ccc(Cl)cc1)=N[C@@H](CC(=O)OC(C)(C)C)c1nnc(C)n1-2 [JQ1]
- stability of fusion protein following compound binding [5]: increase in stability

SMILES: CC(=O)N1CCN(c2ccc(OCC3COC(Cn4ccnc4)(c4ccc(Cl)cc4Cl)O3)cc2)CC1 (stereo not drawn) [Ketoconazole]
- HillSlope [4]: 1083
- stabilization of CYP 17 A domain fusion ([4]; HEK cells, 3-6 hrs): stabilization
- Bottom (best-fit) ([4]; HEK cells, 3-6 hrs at 37° C.): 1.230e+006
- Top (best-fit) ([4]; HEK cells, 3-6 hrs at 37° C.): 2.348e+006

SMILES: COc1cc2c(NC3CCN(C(C)C)CC3)nc(C3CCCCC3)nc2cc1OCCCN1CCCC1 [UNC0638]
- half-life of fusion protein compared to fusion protein not exposed to the binding partner ([6]; A549 cells, cycloheximide): greater
- percent change in luminescence ([6]; after 100 minutes of cycloheximide, A549 cells pretreated 6 hrs): minimal

SMILES: N#Cc1ccc(N(Cc2ccc(Br)cc2)n2cnnc2)cc1 [YM511, 4-[[(4-Bromophenyl)methyl]-4H-1,2,4-triazol-4-ylamino]benzonitrile]
- stabilization of CYP 19A fusion peptide [7]: stabilized

SMILES: CC(C)(C#N)c1cc(Cn2cncn2)cc(C(C)(C)C#N)c1 [anastrazole]
- stabilization of CYP 19A fusion peptide [7]: stabilized

SMILES: Cc1nc(Nc2ncc(C(=O)Nc3c(C)cccc3Cl)s2)cc(N2CCN(CCO)CC2)n1.O [dasatinib, N-(2-chloro-6-methylphenyl)-2-[[6-[4-(2-hydroxyethyl)-1-piperazinyl]-2-methyl-4-pyrimidinyl]amino]-5-thiazole carboxamide monohydrate]
- binding specificity ([8]; BLK-PL vs MEK-PL fusions): specific for binding to the BLK fusion containing the ATP binding site
- signal (BLK-PL fusion) compared to cells incubated with U0126 and PD035901 ([8]; U2OS cells, over a period of time): gain in signal
- affinity of BLK-PL fusion with dasatinib [9]: highest affinity
